The text below walks through data of patent US20250145585A1, “HETEROCYCLIC INHIBITORS OF IGF-1R FOR TREATMENT OF DISEASE” (HORIZON THERAPEUTICS IRELAND DAC, priority 2023, published 2025).

The target of experiment [1] is T1, IGF-1R (Homo sapiens, UniProt P08069).
T1 construct: expressed in transfected cells
Kind of experiment: Example B-1: IGF-1R Assay (PC3 cells stimulated with IGF1, AlphaLISA on cell lysates). Type of experiment: cell-based. The note with it: compound two hours, IGF1 200 ng/mL for 30 min, read-out: IC50, Biological Activity against IGF-1R (Table B1). In outline:
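PC3 cells serum-starved 2 h, treated 2 h with 3-fold serially diluted compound, then stimulated 30 min with IGF1 (200 ng/mL final). Lysates analysed by AlphaLISA; % inhibition calculated relative to vehicle and EC80 controls, IC50 derived.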

The target of experiment [2] is T1, IGF-1R. Kind of experiment: Example B-2: IGF-1R Assay (PathHunter cell lines, EC80 agonist challenge, chemiluminescent detection). The note with it: PathHunter cells, compound 60 minutes at 37° C., EC80 agonist 3 hours; read-out: IC50, Biological Activity against IGF-1R (Table B2). The format is cell-based. The essentials: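 PathHunter cells were pre-incubated with compound for 60 min at 37° C (1% vehicle), then challenged with EC80 agonist for 3 h at room temperature. Chemiluminescent detection after 1 h gave % inhibition relative to EC80 and vehicle controls, from which IC50 was derived.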

T1 sequence (P08069 31-1367): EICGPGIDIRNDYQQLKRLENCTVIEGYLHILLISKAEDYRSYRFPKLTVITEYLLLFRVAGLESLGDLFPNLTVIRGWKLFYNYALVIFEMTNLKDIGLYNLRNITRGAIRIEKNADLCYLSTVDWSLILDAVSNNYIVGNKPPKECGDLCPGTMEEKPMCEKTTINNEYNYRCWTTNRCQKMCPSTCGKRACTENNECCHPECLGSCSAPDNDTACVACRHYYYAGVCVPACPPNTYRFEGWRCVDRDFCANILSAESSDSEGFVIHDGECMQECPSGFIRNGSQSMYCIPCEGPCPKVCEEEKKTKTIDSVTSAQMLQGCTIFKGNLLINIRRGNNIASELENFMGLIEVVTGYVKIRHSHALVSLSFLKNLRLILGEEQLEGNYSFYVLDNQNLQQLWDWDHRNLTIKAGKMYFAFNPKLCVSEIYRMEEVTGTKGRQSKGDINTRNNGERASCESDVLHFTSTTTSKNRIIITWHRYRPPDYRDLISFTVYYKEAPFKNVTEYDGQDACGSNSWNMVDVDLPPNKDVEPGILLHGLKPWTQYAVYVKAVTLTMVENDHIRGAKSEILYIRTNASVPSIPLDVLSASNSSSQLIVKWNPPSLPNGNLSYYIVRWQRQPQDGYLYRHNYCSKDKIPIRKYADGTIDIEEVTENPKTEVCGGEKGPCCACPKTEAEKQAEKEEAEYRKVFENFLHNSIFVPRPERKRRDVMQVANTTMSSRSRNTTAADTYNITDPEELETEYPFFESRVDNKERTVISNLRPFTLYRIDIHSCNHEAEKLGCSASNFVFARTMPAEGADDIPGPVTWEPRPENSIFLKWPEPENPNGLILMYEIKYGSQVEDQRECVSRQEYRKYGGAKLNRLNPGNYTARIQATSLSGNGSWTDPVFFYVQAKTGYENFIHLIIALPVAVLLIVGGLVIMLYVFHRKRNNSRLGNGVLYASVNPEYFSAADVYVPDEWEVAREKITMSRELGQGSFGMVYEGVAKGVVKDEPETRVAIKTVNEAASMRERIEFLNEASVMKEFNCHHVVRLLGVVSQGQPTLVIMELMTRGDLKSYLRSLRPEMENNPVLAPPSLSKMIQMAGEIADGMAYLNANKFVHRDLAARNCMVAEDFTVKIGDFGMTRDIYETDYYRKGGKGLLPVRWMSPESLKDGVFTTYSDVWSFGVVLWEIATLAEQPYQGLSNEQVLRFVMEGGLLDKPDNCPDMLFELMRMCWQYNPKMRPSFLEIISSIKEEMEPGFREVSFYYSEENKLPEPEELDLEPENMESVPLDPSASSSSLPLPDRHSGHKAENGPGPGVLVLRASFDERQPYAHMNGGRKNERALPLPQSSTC

For `CC1(C)C(=O)N(c2ccc(SC(F)(F)F)cc2)C(=O)N1Cc1ccnc2c1CC(=O)N2` [Compound 12, 5,5-dimethyl-1-((2-oxo-2,3-dihydro-1H-pyrrolo[2,3-b]pyridin-4-yl)methyl)-3-(4-((trifluoromethyl)thio)phenyl)imidazolidine-2,4-dione], the IC50 in experiment [1] and in experiment [2] was no more than 500 nM in each case.

For `CC1(C)C(=O)N(c2ccc(C3(C(F)(F)F)CC3)cc2)C(=O)N1Cc1ccnc2c1CC(=O)N2` [Compound 13, 5,5-dimethyl-1-((2-oxo-2,3-dihydro-1H-pyrrolo[2,3-b]pyridin-4-yl)methyl)-3-(4-(1-(trifluoromethyl)cyclopropyl)phenyl)imidazolidine-2,4-dione], the IC50 in experiment [1] and in experiment [2] was no more than 500 nM each time.

For the compound `CC1(C)C(=O)N(c2ccc(SC(F)(F)F)cc2)C(=O)N1Cc1ccnc2c1CCN2` [Compound 16, 1-((2,3-dihydro-1H-pyrrolo[2,3-b]pyridin-4-yl)methyl)-5,5-dimethyl-3-(4-((trifluoromethyl)thio)phenyl)imidazolidine-2,4-dione], the IC50 in experiment [1] and in experiment [2] was no more than 500 nM in each case.

On to `CC1(C)C(=O)N(c2ccc(C3(C(F)(F)F)CC3)cc2)C(=O)N1Cc1ccnc2c1OCCN2` [Compound 17, 1-((3,4-dihydro-2H-pyrido[3,2-b][1,4]oxazin-8-yl)methyl)-5,5-dimethyl-3-(4-(1-(trifluoromethyl)cyclopropyl)phenyl) imidazolidine-2,4-dione], for which the IC50 in experiment [1] and in experiment [2] was no more than 500 nM in each case.

Regarding `CC1(C)C(=O)N(c2ccc(C3(C(F)(F)F)CC3)cc2)C(=O)N1Cc1ccnc2c1CCCN2` [Compound 18, 5,5-dimethyl-1-((5,6,7,8-tetrahydro-1,8-naphthyridin-4-yl)methyl)-3-(4-(1-(trifluoromethyl)cyclopropyl)phenyl) imidazolidine-2,4-dione], the IC50 in experiment [1] and in experiment [2] was no more than 500 nM throughout.

Take `CC1(C)C(=O)Nc2nccc(CN3C(=O)N(c4ccc(SC(F)(F)F)cc4)C(=O)C3(C)C)c21` [Compound 19, 1-((3,3-dimethyl-2-oxo-2,3-dihydro-1H-pyrrolo[2,3-b]pyridin-4-yl)methyl)-5,5-dimethyl-3-(4-((trifluoromethyl)thio)phenyl)imidazolidine-2,4-dione]: the IC50 in experiment [1] and in experiment [2] was no more than 500 nM each time.

As for `CC1(C)CNc2nccc(CN3C(=O)N(c4ccc(SC(F)(F)F)cc4)C(=O)C3(C)C)c21` [Compound 20, 1-((3,3-dimethyl-2,3-dihydro-1H-pyrrolo[2,3-b]pyridin-4-yl)methyl)-5,5-dimethyl-3-(4-((trifluoromethyl)thio)phenyl)imidazolidine-2,4-dione], the IC50 in experiment [1] and in experiment [2] was no more than 500 nM each time.

With `CC1(C)Cc2c(CN3C(=O)N(c4ccc(SC(F)(F)F)cc4)C(=O)C3(C)C)ccnc2N1` [Compound 21, 1-((2,2-dimethyl-2,3-dihydro-1H-pyrrolo[2,3-b]pyridin-4-yl)methyl)-5,5-dimethyl-3-(4-((trifluoromethyl)thio)phenyl)imidazolidine-2,4-dione], the IC50 in experiment [1] and in experiment [2] was no more than 500 nM throughout.

As to `CC1(C)C(=O)N(c2ccc(S(=O)(=O)C(F)(F)F)cc2)C(=O)N1Cc1ccnc2[nH]ccc12` [Compound 22, 1-((1H-pyrrolo[2,3-b]pyridin-4-yl)methyl)-5,5-dimethyl-3-(4-((trifluoromethyl)sulfonyl)phenyl) imidazolidine-2,4-dione], the IC50 in experiment [1] and in experiment [2] was no more than 500 nM each time.

For the compound `CC1(C)C(=O)N(c2ccc(S(=O)(=O)C(F)(F)F)cc2)C(=O)N1Cc1ccnc2c1CC(=O)N2` [Compound 23, 5,5-dimethyl-1-((2-oxo-2,3-dihydro-1H-pyrrolo[2,3-b]pyridin-4-yl)methyl)-3-(4-((trifluoromethyl)sulfonyl)phenyl)imidazolidine-2,4-dione], the 50% inhibitory concentration (IC50) in experiment [1] and in experiment [2] was no more than 500 nM in each case.

In the case of `CC1(C)C(=O)N(c2ccc(C3(C(F)(F)F)CC3)cc2)C(=O)N1Cc1ccnc2c1C(F)(F)C(=O)N2` [Compound 24, 1-((3,3-difluoro-2-oxo-2,3-dihydro-1H-pyrrolo[2,3-b]pyridin-4-yl)methyl)-5,5-dimethyl-3-(4-(1-(trifluoromethyl)cyclopropyl)phenyl) imidazolidine-2,4-dione], the IC50 in experiment [1] and in experiment [2] was no more than 500 nM in each case.

Turning to `C[C@@H]1COc2c(CN3C(=O)N(c4ccc(C5(C(F)(F)F)CC5)cc4)C(=O)C3(C)C)ccnc2N1` [Compound 25, (R)-5,5-dimethyl-1-((3-methyl-3,4-dihydro-2H-pyrido[3,2-b][1,4]oxazin-8-yl)methyl)-3-(4-(1-(trifluoromethyl)cyclopropyl)phenyl) imidazolidine-2,4-dione], the IC50 in experiment [1] and in experiment [2] was no more than 500 nM in each case.

As to `CC(C)Nc1cc(CN2C(=O)N(c3ccc(C4(C(F)(F)F)CC4)cc3)C(=O)C2(C)C)ccn1` [Compound 84, 1-((2-(isopropylamino)pyridin-4-yl)methyl)-5,5-dimethyl-3-(4-(1-(trifluoromethyl)cyclopropyl)phenyl)imidazolidine-2,4-dione], the IC50 in experiment [1] and in experiment [2] was no more than 500 nM throughout.

On to `CC(C)(O)c1ccc(N2C(=O)N(Cc3ccnc(N)c3)C(C)(C)C2=O)cc1` [Compound 88, 1-((2-aminopyridin-4-yl)methyl)-3-(4-(2-hydroxypropan-2-yl)phenyl)-5,5-dimethylimidazolidine-2,4-dione], for which the IC50 (as a rule, the concentration at which inhibition is half-maximal) was 500 to 2000 nM in experiment [1] and 2000 to 10000 nM in experiment [2].

For `CC1(C)C(=O)N(c2ccc(C3(C(F)(F)F)CC3)cc2)C(=O)N1Cc1ccnc(NC2CC2)c1` [Compound 93, 1-((2-(cyclopropylamino)pyridin-4-yl)methyl)-5,5-dimethyl-3-(4-(1-(trifluoromethyl)cyclopropyl)phenyl)imidazolidine-2,4-dione], the IC50 in experiment [1] and in experiment [2] was no more than 500 nM throughout.

On to `CC(C)Nc1cc(CN2C(=O)N(c3ccc(C4CC45CC5)cc3)C(=O)C2(C)C)ccn1` (stereo not drawn) [Compound 97, 1-((2-(isopropylamino)pyridin-4-yl)methyl)-5,5-dimethyl-3-(4-(spiro[2.2]pentan-1-yl)phenyl)imidazolidine-2,4-dione], for which the IC50 in experiment [1] and in experiment [2] was no more than 500 nM in each case.

As for `CC(C)Nc1cc(CN2C(=O)N(c3ccc(C4(C)CC4)cc3)C(=O)C2(C)C)ccn1` [Compound 98, 1-((2-(isopropylamino)pyridin-4-yl)methyl)-5,5-dimethyl-3-(4-(1-methylcyclopropyl)phenyl)imidazolidine-2,4-dione], the IC50 in experiment [1] and in experiment [2] was no more than 500 nM in each case.

For `COC1(c2ccc(N3C(=O)N(Cc4ccnc(NC(C)C)c4)C(C)(C)C3=O)cc2)CC1` [Compound 104, 1-((2-(isopropylamino)pyridin-4-yl)methyl)-3-(4-(1-methoxycyclopropyl)phenyl)-5,5-dimethylimidazolidine-2,4-dione], the IC50 in experiment [1] is no more than 500 nM; in experiment [2], 500 to 2000 nM.

With `CC1(C)C(=O)N(c2ccc(C3(C(F)(F)F)CC3)cc2)C(=O)N1Cc1ccnc(NC2CCOCC2)c1` [Compound 106, 5,5-dimethyl-1-((2-((tetrahydro-2H-pyran-4-yl)amino)pyridin-4-yl)methyl)-3-(4-(1-(trifluoromethyl)cyclopropyl)phenyl) imidazolidine-2,4-dione], the IC50 in experiment [1] and in experiment [2] was no more than 500 nM in each case.

Turning to `CC(C)Nc1cc(CN2C(=O)N(c3ccc(C4(C#N)CCC4)cc3)C(=O)C2(C)C)ccn1` [Compound 107, 1-(4-(3-((2-(isopropylamino)pyridin-4-yl)methyl)-4,4-dimethyl-2,5-dioxoimidazolidin-1-yl)phenyl)cyclobutane-1-carbonitrile], the IC50 in experiment [1] and in experiment [2] was no more than 500 nM throughout.

As for `CC(C)(C#N)Nc1cc(CN2C(=O)N(c3ccc(C4(C(F)(F)F)CC4)cc3)C(=O)C2(C)C)ccn1` [Compound 109, 2-((4-((5,5-dimethyl-2,4-dioxo-3-(4-(1-(trifluoromethyl)cyclopropyl)phenyl)imidazolidin-1-yl)methyl)pyridin-2-yl)amino)-2-methylpropanenitrile], the IC50 in experiment [1] and in experiment [2] was no more than 500 nM each time.

As to `CN1C(=O)C(C)(C)c2ccc(N3C(=O)N(Cc4ccnc(N)c4)C(C)(C)C3=O)cc21` [Compound 110, 1-((2-aminopyridin-4-yl)methyl)-5,5-dimethyl-3-(1,3,3-trimethyl-2-oxoindolin-6-yl)imidazolidine-2,4-dione], the IC50 in experiment [1] fell in the range of 500 to 2000 nM; in experiment [2] it was 2000 to 10000 nM.

With `CC(C)Nc1cc(CN2C(=O)N(c3ccc4c(c3)N(C)C(=O)C4(C)C)C(=O)C2(C)C)ccn1` [Compound 111, 1-((2-(isopropylamino)pyridin-4-yl)methyl)-5,5-dimethyl-3-(1,3,3-trimethyl-2-oxoindolin-6-yl)imidazolidine-2,4-dione], the IC50 in experiment [1] and in experiment [2] was 2000 to 10000 nM throughout.

On to `COC[C@@H](C)Nc1cc(CN2C(=O)N(c3ccc(C4(C(F)(F)F)CC4)cc3)C(=O)C2(C)C)ccn1` [Compound 114, (R)-1-((2-((1-methoxypropan-2-yl)amino)pyridin-4-yl)methyl)-5,5-dimethyl-3-(4-(1-(trifluoromethyl)cyclopropyl)phenyl)imidazolidine-2,4-dione], for which the IC50 in experiment [1] and in experiment [2] was no more than 500 nM each time.
